This note sets out measurements from ChEMBL document CHEMBL1201862, “PubChem BioAssay data set” (2004).

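Cells were grown in 96-well plates and exposed to each compound for 48 hours at five concentrations; endpoints were interpolated linearly between bracketing concentrations, or set to the highest concentration if not reached. Abbreviation: GI50, concentration required for 50% inhibition of growth.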 Activity calls are given as the source filed them. No stated cut-off is given here; in the data, active = GI50 up to about 1.1 µM and inactive = higher. A value given as a limit tells only on which side of the number the result lay.

Assay in all cases: NCI anticancer screen, dose series, 48 h
Experiment [1] has as its system A549.
In experiment [2] the test system is ACHN.
Experiment [3] relates to HCC 2998.
The subject of experiment [4] is HOP-92.
Experiment [5] relates to K562.
Experiment [6] concerns MCF7.
Experiment [7] concerns MDA-N.
Experiment [8] deals with MOLT-4.
In experiment [9] the test system is OVCAR-4.
For experiment [10], the system named is RXF 393.
In experiment [11] the test system is SF-295.
Experiment [12] has as its system SK-MEL-5.
Experiment [13] relates to SN12C.
The subject of experiment [14] is SNB-19.
For experiment [15], the system named is SW-620.
The test system of experiment [16] is UACC-257.
The subject of experiment [17] is UO-31.
Experiment [18] concerns HOP-62.
Experiment [19] concerns Malme-3M.
In experiment [20] the test system is NCI-H226.

As to `CCC(=O)NC(Nc1cccc(F)c1)(C(F)(F)F)C(F)(F)F`, the GI50 in [1], in [2], in [3], in experiment [4], in experiment [5] and in experiment [6] was > 100 µM (inactive) in each case. The GI50 in experiment [7] is > 100 µM (inactive); in [8], 57 µM (inactive); in [9], > 100 µM (inactive); in [10], > 100 µM (inactive); in experiment [11], > 100 µM (inactive); in [12], 78.7 µM (inactive). Besides, the GI50 in experiment [13] was 37.7 µM (inactive); in experiment [14], > 100 µM (inactive); in experiment [15] it was > 100 µM (inactive); in experiment [16] it was > 100 µM (inactive); in [17], 70.1 µM (inactive).
With `C[C@H]1S[C@@H](c2ccc(Cl)cc2Cl)N(NC(=O)c2ccncc2)C1=O`, the GI50 in [18] is > 100 µM (inactive); in experiment [4], 60.5 µM (inactive); in experiment [5] it was 28.1 µM (inactive); in [6], 45 µM (inactive); in [7] it was > 10 µM (inactive); in experiment [8], 18.4 µM (inactive). Also, the GI50 was > 100 µM (inactive) in experiment [19]; 41.6 µM (inactive) in experiment [20]; > 100 µM (inactive) in experiment [9]; 25.4 µM (inactive) in [10]; 44.8 µM (inactive) in experiment [12]; 71.3 µM (inactive) in [13]. The GI50 in experiment [14] is 62.4 µM (inactive); in experiment [17] it was 37 µM (inactive).
As for `Cc1n[nH]c(CC#N)n1`, the GI50 in [1], in experiment [2], in experiment [3], in experiment [18], in [4] and in [5] was > 100 µM (inactive) each time. Moreover, the GI50 in experiment [6], in [7], in experiment [8], in [9], in experiment [10] and in experiment [11] was > 100 µM (inactive) throughout. Besides, the GI50 in experiment [12], in experiment [13], in experiment [14], in experiment [15], in experiment [16] and in experiment [17] was > 100 µM (inactive) each time.
For `COC(=O)C(F)C(Br)C(=O)OC` (stereo not given), the GI50 in experiment [1] was 19.7 µM (inactive); in experiment [2], 1.86 µM (inactive); in [3] it was 8 µM (inactive); in experiment [18] it was 16.3 µM (inactive); in [4], 2.56 µM (inactive); in experiment [5] it was 1.63 µM (inactive). The GI50 is 3.42 µM (inactive) in experiment [6]; 8.51 µM (inactive) in experiment [7]; 0.9 µM (active) in [8]; 6.47 µM (inactive) in experiment [19]; 20.9 µM (inactive) in experiment [20]; 3.39 µM (inactive) in [9]. Besides, the GI50 is 2.18 µM (inactive) in experiment [10]; 26.4 µM (inactive) in experiment [11]; 18.5 µM (inactive) in experiment [12]; 16.9 µM (inactive) in experiment [13]; 30.7 µM (inactive) in experiment [14]; 1.95 µM (inactive) in experiment [15]. For the same compound, the GI50 in experiment [16] is 14.6 µM (inactive); in experiment [17], 1.89 µM (inactive).
With `COc1cc(/C=C2\N=C(c3ccccc3)N(C3Nc4cc5c(cc4S3)NC(N3C(=O)/C(=C/c4cc(OC)c(OC)c(OC)c4)N=C3c3ccccc3)S5)C2=O)cc(OC)c1OC` (stereo not given), the GI50 in experiment [1] is 23.6 µM (inactive); in experiment [2] it was > 100 µM (inactive); in experiment [3], > 100 µM (inactive); in experiment [18] it was > 100 µM (inactive); in [4], > 100 µM (inactive); in experiment [5], 71.9 µM (inactive). For the same compound, the GI50 is 46.7 µM (inactive) in experiment [6]; 74.3 µM (inactive) in experiment [7]; 25.9 µM (inactive) in experiment [8]; > 100 µM (inactive) in [20]; 70.5 µM (inactive) in experiment [9]; > 100 µM (inactive) in experiment [10]. In addition, the GI50 in [11] was 83.6 µM (inactive); in experiment [12], 64.9 µM (inactive); in [15], > 100 µM (inactive); in experiment [16], > 100 µM (inactive); in experiment [17], 54.1 µM (inactive).
As to `COc1cc2cc(C(=O)N3CC(CCl)c4ccc(NO)cc43)[nH]c2c(OC)c1OC` (stereo not given), the GI50 in [1] is 0.0897 µM (active); in experiment [2] it was 0.091 µM (active); in experiment [3] it was 0.0977 µM (active); in [18] it was 0.0925 µM (active); in [4] it was 0.352 µM (active); in experiment [5] it was 0.139 µM (active). Moreover, the GI50 in experiment [6] was 0.0391 µM (active); in experiment [7], 0.249 µM (active); in experiment [8], 0.184 µM (active); in experiment [19], 0.164 µM (active); in experiment [20], 0.244 µM (active); in [9] it was 0.177 µM (active). For the same compound, the GI50 in experiment [10] was 0.114 µM (active); in experiment [11], 0.0836 µM (active); in experiment [12], 0.0984 µM (active); in experiment [13] it was 0.286 µM (active); in experiment [14], 0.264 µM (active); in experiment [15], 0.166 µM (active). In addition, the results for the GI50 in experiment [16] and in experiment [17] were 0.201 µM (active) and 0.0325 µM (active), respectively.
As to `Nc1ccn(C2OC(CO[PH](=O)OC3C(CO[PH](=O)OC4C(CO[PH](=O)OC5C(CO[PH](=O)OC6C(CO[PH](=O)OC7C(CO[PH](=O)OC8C(CO[PH](=O)OC9C(CO[PH](=O)OC%10C(CO[PH](=O)OC%11C(CO)OC(n%12ccc(N)nc%12=O)C%11(F)F)OC(n%11ccc(N)nc%11=O)C%10(F)F)OC(n%10ccc(N)nc%10=O)C9(F)F)OC(n9ccc(N)nc9=O)C8(F)F)OC(n8ccc(N)nc8=O)C7(F)F)OC(n7ccc(N)nc7=O)C6(F)F)OC(n6ccc(N)nc6=O)C5(F)F)OC(n5ccc(N)nc5=O)C4(F)F)OC(n4ccc(N)nc4=O)C3(F)F)C(O)C2(F)F)c(=O)n1` (stereo not given), the GI50 in [1] was 0.016 µM (active); in experiment [2], 0.00533 µM (active); in [3], 0.0805 µM (active); in experiment [18] it was 0.0581 µM (active); in experiment [4], 0.155 µM (active); in [5] it was 1.49 µM (inactive). In addition, the GI50 in experiment [6] is 0.0103 µM (active); in experiment [7], 0.0442 µM (active); in experiment [8], 0.0333 µM (active); in experiment [19], 0.391 µM (active); in [20] it was 9.44 µM (inactive); in [9], 10 µM (inactive). Besides, the GI50 in experiment [11] was 0.0697 µM (active); in experiment [12], 1.73 µM (inactive); in experiment [13] it was 0.0661 µM (active); in [14], 0.0259 µM (active); in experiment [15], 0.577 µM (active); in [16], 0.34 µM (active). For the same compound, the GI50 in [17] was 0.0213 µM (active).
In the case of `O=C1CSC(/C=C/c2ccccc2)N1c1nc2cc3sc(N4C(=O)CSC4/C=C/c4ccccc4)nc3cc2s1` (stereo not given), the GI50 is 9.82 µM (inactive) in experiment [1]; 42.1 µM (inactive) in [2]; 43.8 µM (inactive) in [3]; > 74 µM (inactive) in [18]; > 100 µM (inactive) in experiment [4]; 42.4 µM (inactive) in experiment [5]. Also, the GI50 in experiment [6] was 13.5 µM (inactive); in [7] it was > 44.8 µM (inactive); in experiment [8] it was 5.9 µM (inactive); in [19] it was > 87.1 µM (inactive); in experiment [20], 17.1 µM (inactive); in [9], 65.3 µM (inactive). The GI50 in [10] was > 100 µM (inactive); in experiment [11], > 100 µM (inactive); in experiment [12], > 46.5 µM (inactive); in [13], 18.3 µM (inactive); in experiment [14], > 84.5 µM (inactive); in experiment [15], 9.46 µM (inactive). The GI50 is > 86.5 µM (inactive) in experiment [16] and > 51.5 µM (inactive) in experiment [17].
For the compound `COc1ccccc1N1C(=O)/C(=C\c2cc(OC)c(OC)c(OC)c2)SC1c1ccccc1` (stereo not given), the GI50 was 57.4 µM (inactive) in experiment [1]; 44.4 µM (inactive) in [2]; > 100 µM (inactive) in experiment [3]; 27.8 µM (inactive) in experiment [18]; 22.7 µM (inactive) in experiment [4]; 4.33 µM (inactive) in experiment [5]. Also, the GI50 was 18.2 µM (inactive) in experiment [6]; 15.2 µM (inactive) in experiment [7]; 9.95 µM (inactive) in experiment [8]; 20.3 µM (inactive) in experiment [19]; 28.9 µM (inactive) in experiment [20]; 49.4 µM (inactive) in experiment [9]. The GI50 in experiment [10] is 14.5 µM (inactive); in experiment [11], 23.1 µM (inactive); in experiment [12] it was 14.2 µM (inactive); in experiment [13], 91 µM (inactive); in experiment [14], 27 µM (inactive); in experiment [15], 53.1 µM (inactive). Also, the GI50 in [16] is 36.1 µM (inactive); in experiment [17], 11.5 µM (inactive).
